# Key:
# PD-L1 = PD-L1 expression on cell membrane of H1299 and PC9 cells (immunocytochemistry, Western blot); format: cell-based, human; conditions: for PD-L1 expression restoration on the cell membrane by FOXM1 overexpression, by: TST 5 μM 48 hours in the presence of IFNγ; for reduction in the PD-L1 levels (cell membrane): TST in the presence of IFNγ, vs DMSO control
# Description: Cells were lysed in RIPA buffer supplemented with complete mini protease inhibitor cocktail (#04693124001; Roche, Basel, Switzerland) and kept on ice for 30 minutes. Equal amounts of protein were evenly loaded and analyzed by sodium dodecyl sulfate-polyacrylamide gel electrophoresis (SDS-PAGE), and transferred to polyvinylidene difluoride (PVDF) membranes (#IPVH 00010; Millipore, Billerica, MA, USA) at 100 V for 1 hour. Primary antibodies (Santa Cruz Biotechnology, Texas, USA) specific for FOXM1 (#sc-271746), cyclin E1 (#sc-481), α-tubulin (#sc-8035), and β-actin (#sc-47778); PD-L1 (#13684S), cyclin D1 (#2978S), cyclin B1 (#4138S), c-MYC (#5605S), and poly(ADP-ribose) polymerase (PARP, #9542S; Cell Signaling Technology, Beverly, MA, USA) were used to probe proteins of interest. A horseradish-peroxidase-conjugated secondary antibodies specific to the primary antibody was used to detect proteins using pico-enhanced chemiluminescence substrate (#34577; Thermo Fisher Scientific).
# Cells were fixed in 4% paraformaldehyde (#30525-89-4; FUJIFILM Wako Chemical, Wako, Japan) for 15 minutes and blocked with 1% bovine serum albumin (BSA) in phosphate-buffered saline-0.01% Tween-20 (PBS-T) to reduce nonspecific antibody binding. Cells were then incubated overnight with an anti-PD-L1 antibody (#14598382; eBioscience, San Diego, CA, USA) diluted 1:200 and an anti-FOXM1 antibody (#sc-271746; Santa Cruz Biotechnology) diluted 1:50, followed by incubation with an Alexa Fluor 488-labeled secondary antibody (#A11029; Thermo Fisher Scientific) for 1 hour. Nuclei were stained with Hoechst 33342. After incubation, cells were washed with PBS and mounted on glass slides using Prolong Glass Antifade mounting medium (#P36982; Thermo Fisher Scientific). Confocal microscopy was performed using a Zeiss 730 Meta microscope (Carl Zeiss, Oberkochen, Germany) and analyzed using Axiovision software (Carl Zeiss).
# MC38 cells = experiment: Apoptotic cell death assay (Annexin V assay), MC38; format: cell-based, mouse; conditions: TST 5 μM, 48 hours
# Description: MC38 cells (8.0×10^4) were seeded in 6-well plates and cultured for 24 hours. The cells were treated with TST (5 μM) for 48 hours, harvested, and analyzed via FACS-Verse using a BD FITC Annexin V Apoptosis Detection Kit I (Cat No. 556547; BD Biosciences, San Diego, CA, USA) according to the manufacturer's protocol.
# CD274 promoter = experiment: Dual-luciferase assay with CD274 promoter-luciferase construct; format: cell-based, human; conditions: TST in the presence of IFNγ
# Excerpt: The pGL3 plasmid containing a 2 kb promoter of CD274 (#107003; Addgene, Watertown, MA, USA) was kindly provided by Julian Downward lab (Coelho M A, de Carne Trecesson S, Rana S, Zecchin D, Moore C, Molina-Arcas M, East P, Spencer-Dene B, Nye E, Barnouin K, Snijders A P, Lai W S, Blackshear P J, Downward J, Immunity 2017, 47, 1083.). H1299 and PC9 cells were co-transfected with a pGL3 2 kb promoter. Cells containing CD274 or control pGL3-basic plasmid and pGL4.70 hRluc Renilla luciferase vector (Promega, Madison, WI, USA) were transfected with siFOXM1 or treated with TST in the presence of interferon-gamma (IFNγ). Cells were harvested 48 hours after transfection, and a dual luciferase assay was performed to the according manufacturer's protocol (#E1910; Promega). At least four independent biological replicates were examined to obtain reliable results.
# FOXM1 = target: T1, FOXM1 (Homo sapiens, UniProt Q08050); experiment: FOXM1 inhibitors tested in H1299 and PC9 cells (FOXM1 levels); format: cell-based
# T1 construct: host or cells: H1299 and PC9 cells
# T1 sequence (Q08050 1-763): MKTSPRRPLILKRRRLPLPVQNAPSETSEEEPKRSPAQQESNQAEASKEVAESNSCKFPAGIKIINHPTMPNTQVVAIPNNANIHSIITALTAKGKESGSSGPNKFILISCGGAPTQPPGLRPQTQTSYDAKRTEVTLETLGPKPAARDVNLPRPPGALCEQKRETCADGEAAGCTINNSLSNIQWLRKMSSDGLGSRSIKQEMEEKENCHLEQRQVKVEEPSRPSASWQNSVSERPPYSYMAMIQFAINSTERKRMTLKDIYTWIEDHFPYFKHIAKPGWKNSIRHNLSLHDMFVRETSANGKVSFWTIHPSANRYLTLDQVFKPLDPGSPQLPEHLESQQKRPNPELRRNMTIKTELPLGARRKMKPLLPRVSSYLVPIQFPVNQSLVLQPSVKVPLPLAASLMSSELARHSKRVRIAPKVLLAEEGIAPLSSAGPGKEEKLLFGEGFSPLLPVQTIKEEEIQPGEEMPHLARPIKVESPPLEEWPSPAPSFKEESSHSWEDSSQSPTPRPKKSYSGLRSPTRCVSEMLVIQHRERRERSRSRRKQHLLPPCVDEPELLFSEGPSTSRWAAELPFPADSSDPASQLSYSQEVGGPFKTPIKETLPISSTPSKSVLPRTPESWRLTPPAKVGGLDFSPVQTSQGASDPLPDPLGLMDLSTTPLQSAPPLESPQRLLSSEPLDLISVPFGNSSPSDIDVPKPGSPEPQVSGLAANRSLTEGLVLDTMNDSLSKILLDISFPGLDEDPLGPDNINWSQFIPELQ
# Description: H1299 and PC9 cells purchased from ATCC (Manassas, VA, USA) were cultured in RPMI-1640 medium (#10-040-CV; Corning, New York, NY, USA) supplemented with 10% […] (#35-010-CV; Corning) and penicillin-streptomycin antibiotic cocktail (#15240062; Thermo Fisher Scientific, Waltham, MA, USA) at 37° C. and 5% CO2.
# Total RNA was extracted and purified using the RNeasy kit (#74004; QIAGEN) according to the manufacturer's protocol. Reverse transcription of mRNA was performed using a PrimeScript 1st Strand CDNA Synthesis Kit (#6110A; TaKaRa Bio, Otsu, Japan). Quantitative PCR was performed using primers specific for the CD274 and FOXM1 genes designed using Primer 3 software. A β-actin gene was used as an internal control group to normalize target gene expression.
# [1] = tested on: human primary coronary artery smooth muscle cells (SMCs); experiment: Cell viability assay (WST-1), SMC normal cells; format: cell-based; conditions: 48 hours
# Description: MC38 and SMC were cultured at a density of 3×10^3 cells/well in 96-well plates. The cells were treated with various concentrations of TST dissolved in the medium for 48 hours, then WST-1 reagent (MK400; Takara) was added at a concentration of 10 μL/well and cultured for 1 hour. The absorbance was measured at 450 nm for further analysis.
substance,measurement,setting,value
thiostrepton [TST],elevated level of PD-L1 by pFLAG-FOXM1 overexpression decreased to,PD-L1; H1299,41.9%
same,"PD-L1 expression restoration on the cell membrane by FOXM1 overexpression, by",PD-L1; H1299,38.7%
same,reduction in the PD-L1 levels (cell membrane),PD-L1; H1299,87.23%
same,elevated level of PD-L1 by pFLAG-FOXM1 overexpression decreased to,PD-L1; PC9,68.0%
same,"PD-L1 expression restoration on the cell membrane by FOXM1 overexpression, by",PD-L1; PC9,46%
same,reduction in the PD-L1 levels (cell membrane),PD-L1; PC9,85.82%
same,apoptotic cell death (flow cytometry),MC38 cells,significantly increased apoptotic cell death
same,decrease in relative luciferase activity (CD274 promoter activity),CD274 promoter; H1299,53%
same,decrease in relative luciferase activity (CD274 promoter activity),CD274 promoter; PC9,66%
same,FOXM1 levels,FOXM1,"the most effective inhibitor, significantly reducing FOXM1 levels"
same,in vitro cytotoxicity on SMC normal cells,[1],no significant apoptotic cell death

# From patent publication US20260248881A1, “PHARMACEUTICAL COMPOSITION COMPRISING FOXM1 INHIBITOR AND IMMUNE CHECKPOINT INHIBITOR FOR PREVENTING OR TREATING CANCER” (National Cancer Center, priority 2022, published 2026)
